Test results reported in PubChem BioAssay (NCI).
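The concentration for 50% growth inhibition is given as GI50. Definition used: TGI = concentration required for complete inhibition of growth.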

How the values were obtained:
Test in all cases: DTP human tumour cell line panel, 384-well format
[1] = system: HOP-92 NSCLC
[2] = system: EKVX NSCLC
[3] = system: MALME-3M melanoma
[4] = system: MDA-MB-468 breast
[5] = system: 786-0 renal
[6] = system: HT29 colon
[7] = system: MCF7 breast
[8] = system: HCT-15 colon
[9] = system: HCT-116 colon
[10] = system: T-47D breast
[11] = system: IGROV1 ovarian
[12] = system: SK-MEL-5 melanoma
[13] = system: HL-60(TB) leukemia
[14] = system: ACHN renal
[15] = system: A549 NSCLC
[16] = system: SW-620 colon
[17] = system: TK-10 renal
[18] = system: CAKI-1 renal
[19] = system: RPMI-8226 leukemia
[20] = system: RXF 393 renal
[21] = system: DU-145 prostate
[22] = system: BT-549 breast
[23] = system: PC-3 prostate
[24] = system: SNB-19 CNS
[25] = system: UACC-257 melanoma
[26] = system: M14 melanoma
[27] = system: HOP-62 NSCLC
[28] = system: U251 glioblastoma
[29] = system: UACC-62 melanoma
[30] = system: A498 renal
[31] = system: UO-31 renal
[32] = system: NCI-H226 lung
[33] = system: SNB-75 CNS
[34] = system: HCC-2998 colon
[35] = system: LOX IMVI melanoma
[36] = system: OVCAR-4 ovarian
[37] = system: SF-268 CNS
[38] = system: KM12 colon
[39] = system: SK-MEL-28 melanoma

With `CC(=O)c1nc(-c2ccc(C[C@@H](CNC(=O)CN(C)C)NC(=O)c3ccc(OC(C)C)c(Cl)c3)cc2)cn1C` the GI50 [1] was 1820 nM, the TGI [1] was 18200 nM and the GI50 [2] was 24.1 nM. For the same compound, the TGI [2] was 17300 nM, the GI50 [3] was 61.3 nM and the TGI [3] was 1700 nM. The TGI [4] was 29.5 nM, the GI50 [5] was 18.4 nM and the TGI [5] was 14000 nM. The GI50 [6] was 13 nM, the TGI [6] was 60 nM and the GI50 [7] was 60.1 nM. It also gave a TGI [7] of 18200 nM, a GI50 [8] of 47.1 nM and a TGI [8] of 16100 nM. For the same compound, the GI50 [9] was 34.1 nM, the TGI [9] was 15100 nM and the GI50 [10] was 22.7 nM. For the same compound, the TGI [10] was 13100 nM, the GI50 [11] was 54.1 nM and the TGI [11] was 20400 nM. The GI50 [12] was 25.4 nM, the TGI [12] was 1180 nM and the GI50 [13] was 14.9 nM. For the same compound, the TGI [13] was 29 nM, the GI50 [14] was 11000 nM and the TGI [14] was 23200 nM. The GI50 [15] was 36.7 nM, the TGI [15] was 16500 nM and the GI50 [16] was 47.3 nM. It also gave a TGI [16] of 20600 nM, a GI50 [17] of 10200 nM and a TGI [17] of 21900 nM. For the same compound, the GI50 [18] was 45.4 nM, the TGI [18] was 16500 nM and the GI50 [19] was 21.3 nM. It also gave a TGI [19] of 42.9 nM, a GI50 [20] of 19.2 nM and a TGI [20] of 10900 nM. The GI50 [21] was 16.9 nM, the TGI [21] was 15900 nM and the GI50 [22] was 25.8 nM. It also gave a TGI [22] of 13600 nM, a GI50 [23] of 31.4 nM and a TGI [23] of 19100 nM. For the same compound, the GI50 [24] was 14.5 nM, the TGI [24] was 21500 nM and the GI50 [25] was 68.3 nM. The TGI [25] was 1760 nM, the GI50 [26] was 17.4 nM and the TGI [26] was 51.5 nM. The GI50 [27] was 41.4 nM, the TGI [27] was 20700 nM and the GI50 [28] was 16.2 nM. It also gave a TGI [28] of 16900 nM, a GI50 [29] of 16.1 nM and a TGI [29] of 17900 nM. The GI50 [30] was 39 nM, the TGI [30] was 19400 nM and the GI50 [31] was 823 nM. It also gave a TGI [31] of 20900 nM, a GI50 [32] of 12200 nM and a TGI [32] of 24600 nM. For the same compound, the GI50 [33] was 55.8 nM, the TGI [33] was 15800 nM and the GI50 [34] was 18.1 nM. The TGI [34] was 6860 nM, the GI50 [35] was 62.8 nM and the TGI [35] was 18000 nM. It also gave a GI50 [36] of 12500 nM, a TGI [36] of 25100 nM and a GI50 [37] of 12.3 nM. The TGI [37] was 43.9 nM, the GI50 [38] was 13.9 nM and the TGI [38] was 19800 nM. For the same compound, the GI50 [39] was 1130 nM and the TGI [39] was 7500 nM.
